In PMC8765781, “A platform of assays for the discovery of anti-Zika small-molecules with activity in a 3D-bioprinted outer-blood-retina model” (PLoS ONE, 2022):
Where two headings read alike, the source gives them in different places.

Experiments:
[1] = system: wild-type ZIKV (Ugandan MR766 strain) in Vero cells; assay: ZIKV cytopathic effect (CPE) inhibition qHTS assay, CellTiter-Glo readout; type: cell-based, Zika virus; conditions: for IC50: read-out: ZIKV-infection (CPE, ZIKV Antiviral Assays), IC50
[2] = system: ZIKV-mCherry (Cambodian strain FSS13025); assay: microbe, parasite or virus in culture; type: cell-based, Zika virus
[3] = system: ZIKV-RLuc (Cambodian strain FSS13025); assay: microbe, parasite or virus in culture; type: cell-based, Zika virus; conditions: for IC50: read-out: Rluc-ZIKV (ZIKV Antiviral Assays), IC50
in vitro [4] = conditions: African green monkey
in vitro [5] = conditions: human
[6] = system: caspase-3 activity induced by ZIKV in Vero cells; assay: cells; type: cell-based; conditions: read-out: Caspase 3 (ZIKV Antiviral Assays), IC50
[7] = system: DENV (Dengue virus type 2, strain New Guinea C)
[8] = system: mCherry-ZIKV in human neuronal progenitor cells; assay: microbe, parasite or virus in culture; type: cell-based, Zika virus
[9] = Zika virus, Vero, read-out: Log AC50 (M) (converted)
[10] = Zika virus, Vero, from Hill fit of the response curve, 50% of maximum activity response, 194 cherry-picked compounds, protocol name not given, read-out: AC50
[11] = Zika virus, Vero, potency in log units (Molar) from Hill fit of the response curve, 194 cherry-picked compounds, protocol name not given, read-out: Log AC50 (converted)
[12] = Zika virus, Vero cells, wild-type ZIKV MOI 1, 48 hr, unit inferred
[13] = difference between neutral response and maximum compound response
[14] = Zika virus, ZIKV-infected Vero cells, 48 hr, unit inferred

Compound: O=C(O)Cc1cc(I)c(Oc2ccc(O)c(I)c2)c(I)c1 [NCGC00016227-08]
- Efficacy [1]: -29.653
- AC50 ([1]; Zika virus, Vero): 2.91e-05 M
- IC50 ([1]; Zika virus, Vero, 48 h): 29.1 µM
- AC50 [1, 9]: 2.91e-05 M
- CC-v2 (curve class of the dose response curve) [2]: -1.3
- Efficacy (difference between neutral response and maximum compound response) [2]: -57.778
- Max Resp (difference between neutral response and response at highest compound concentration) [2]: -100.305
- AC50 ([2]; Zika virus, Vero): 1.5e-05 M
- AC50 [2, 9]: 1.5e-05 M
- IC50 ([3]; Zika virus, Vero, 48 h): 23.3 µM
- CC50 at 48 h (in vitro [4]): > 50 µM
- CC50 (in vitro [5]): > 30 µM
- IC50 ([6]; Zika virus, Vero, 48 h): > 48 µM

Compound: CS[C@H]1SC[C@@H]2C(=O)N(C)[C@H](C(C)C)C(=O)OC[C@H](NC(=O)c3cnc4ccccc4n3)C(=O)N[C@H](C)C(=O)N(C)[C@H]1C(=O)N(C)[C@H](C(C)C)C(=O)OC[C@H](NC(=O)c1cnc3ccccc3n1)C(=O)N[C@H](C)C(=O)N2C [NCGC00163548-03]
- CC-v2 (curve class of the dose response curve) [2]: -1.1
- Efficacy (difference between neutral response and maximum compound response) [2]: -108.47
- Max Resp (difference between neutral response and response at highest compound concentration) [2]: -100.29
- AC50 ([2]; Zika virus, Vero): 2.99e-09 M
- AC50 [2, 9]: 2.99e-09 M
- YFV active Yes/No (YFV (YFV 17D)): No
- WHV active Yes/No (WNV (Kern515/WN02)): No
- ZIKV active Yes/No (ZIKV): No
- DENV active Yes/No [7]: No
- Antiviral activity in human NPC [8]: moderate antiviral activity

Compound: Cc1ccc2c(c1)Cc1c(C(=O)NN3CCCCC3)nn(-c3ccc(Cl)cc3Cl)c1-2 [NCGC00167846-01]
- AC50 (Vero cells): 4.14 µM
- Log AC50 (M) (Vero cells): -5.3827 M
- CC-v2 (curve class of the dose response curve) [2]: -1.3
- Efficacy (difference between neutral response and maximum compound response) [2]: -70.543
- Max Resp (difference between neutral response and response at highest compound concentration) [2]: -100.29
- AC50 ([2]; Zika virus, Vero): 6.7e-07 M
- AC50 [2, 9]: 6.7e-07 M
- CC-v2 (curve class classification v2 of the dose response curve) [3]: -1.1
- Efficacy (difference between neutral response and maximum compound response) [3]: -95.949
- Max Resp (difference between neutral response and compound response for highest compound concentration) [3]: -99.943
- AC50 ([3]; Zika virus, Vero): 4.14e-06 M
- AC50 [3, 9]: 4.14e-06 M
- YFV active Yes/No (YFV (YFV 17D)): No
- WHV active Yes/No (WNV (Kern515/WN02)): No
- Activity against ZIKV (ZIKV): active against both DENV and ZIKV
- SI value ZIKV (CC50/EC50) (ZIKV): 31
- ZIKV active Yes/No (ZIKV): Yes
- Activity against DENV [7]: active against both DENV and ZIKV
- DENV active Yes/No [7]: Yes
- SI value DENV (CC50/EC50) [7]: 16
- Antiviral activity in human NPC [8]: effectively inhibited ZIKV in NPC cells
- Efficacy [8]: -97.35
- Max Resp [8]: -80.167
- AC50 ([8]; Zika virus, Neuronal progenitor cell): 3.98e-05 M
- AC50 ([8]; Zika virus, Neuronal progenitor cell, read-out: Log AC50 (M) (converted)): 3.98e-05 M

Compound: CCC(C)C1NC(=O)C(C(C)=O)=C1O (centres unmarked) [NCGC00168879-02]
- CC-v2 (curve class classification of the dose response curve) [1]: -1.2
- Efficacy [1]: -73.15
- AC50 ([1]; Zika virus, Vero): 2.11e-05 M
- IC50 ([1]; Zika virus, Vero, 48 h): 21.1 µM
- AC50 [1, 9]: 2.11e-05 M
- CC-v2 (curve class of the dose response curve) [2]: -1.2
- Efficacy (difference between neutral response and maximum compound response) [2]: -63.104
- Max Resp (difference between neutral response and response at highest compound concentration) [2]: -99.611
- AC50 ([2]; Zika virus, Vero): 2.17e-05 M
- AC50 [2, 9]: 2.17e-05 M
- IC50 ([3]; Zika virus, Vero, 48 h): 12 µM
- CC50 (in vitro [4]): > 50 µM
- CC50 (in vitro [5]): > 30 µM
- IC50 ([6]; Zika virus, Vero, 48 h): 3.82 µM

Compound: COc1c(C(C)C)cc2c(c1O)[C@@]1(C(=O)O)CCCC(C)(C)C1CC2 (some centres unmarked) [NCGC00169945-03]
- AC50 [1, 10]: 1.43e-05 M
- AC50 [1, 11]: 1.43e-05 M
- IC50 [1, 12]: 14.3 µM
- Efficacy [1, 13]: -27.847
- CC-v2 (curve class of the dose response curve) [2]: -2.3
- Efficacy (difference between neutral response and maximum compound response) [2]: -78.993
- Max Resp (difference between neutral response and response at highest compound concentration) [2]: -100.305
- AC50 ([2]; Zika virus, Vero): 1.47e-05 M
- AC50 [2, 9]: 1.47e-05 M
- IC50 ([3]; Zika virus, Vero, 48 h): 16.1 µM
- CC50 at 48 h (in vitro [4]): > 50 µM
- CC50 (in vitro [5]): 12.5 µM
- IC50 [6, 14]: 20.4 µM

Compound: CC1=C[C@H]2O[C@@H]3[C@H](O)C[C@](C)([C@@]2(CO)[C@H](O)C1=O)[C@]31CO1 [NCGC00180572-02, vomitoxin]
- Efficacy [1]: -38.561
- Log AC50 (M) [1]: -6.2862 M
- Max Resp [1]: -28.893
- AC50 ([1]; read-out: AC50): 5.17e-07 M
- IC50 [1]: 0.52 µM
- CC-v2 (curve class of the dose response curve) [2]: -1.1
- Efficacy (difference between neutral response and maximum compound response) [2]: -87.951
- Log AC50 (M) [2]: -7.0741 M
- Max Resp (difference between neutral response and response at highest compound concentration) [2]: -98.582
- AC50 ([2]; read-out: AC50): 8.43e-08 M
- IC50 [3]: 0.74 µM
- YFV active Yes/No (YFV (YFV 17D)): Yes
- WHV active Yes/No (WNV (Kern515/WN02)): Yes
- ZIKV active Yes/No (ZIKV): Yes
- IC50 [6]: 0.74 µM
- DENV active Yes/No [7]: Yes
- CC-v2 (curve class) [8]: -1.1
- Efficacy [8]: -97.398
- Log AC50 (M) [8]: -5.35 M
- Max Resp [8]: -88.056
- AC50 ([8]; read-out: AC50): 4.47e-06 M
- IC50 ([8]; read-out: IC50 in NPC): 4.4 µM
- IC50 ([8]; read-out: NPC (ZIKV Antiviral Assays), IC50): 4.47 µM

Compound: C=C(C)C1Cc2c(ccc3c2OCC(c2ccc(O)cc2O)C3)O1 (centres unmarked) [NCGC00347653-02]
- Curve class [1]: -3
- Efficacy [1]: -16.545
- AC50 ([1]; Zika virus, Vero): 7.18e-08 M
- IC50 ([1]; Zika virus, Vero, 48 h): 0.07 µM
- AC50 ([1]; Zika virus, Vero, read-out: Log AC50 (converted)): 7.18e-08 M
- Emax ([1]; Zika virus, Vero, read-out: Max response): -30.5%
- CC-v2 (curve class of the dose response curve) [2]: 5
- Efficacy (difference between neutral response and maximum compound response) [2]: 33.59
- Max Resp (difference between neutral response and response at highest compound concentration) [2]: -97.958
- IC50 ([3]; Zika virus, Vero, 48 h): 0.02 µM
- CC50 at 48 h (in vitro [4]; Vero cells): > 50 µM
- CC50 (in vitro [5]): > 30 µM
- IC50 ([6]; Zika virus, Vero, 48 h): 16.2 µM

Compound: C[C@H]1CC[C@@]2(OC1)O[C@H]1CC3C4CC=C5C[C@H](O)C[C@@H](O[C@@H]6O[C@@H](C)[C@H](O)[C@@H](O)[C@H]6O[C@@H]6O[C@@H](C)[C@H](O)[C@@H](O)[C@H]6O)[C@]5(C)C4CC[C@]3(C)[C@H]1[C@@H]2C (some centres unmarked) [NCGC00380128-01, Ophiopogonin B]
- AC50 [1, 10]: 1.72e-05 M
- AC50 [1, 11]: 1.72e-05 M
- IC50 [1, 12]: 17.2 µM
- CC-v2 (curve class classification of the dose response curve) ([1]; curve class v2 (Inglese et al. 2006)): -2.2
- Efficacy [1, 13]: -28.987
- CC-v2 (curve class of the dose response curve) [2]: -1.4
- Efficacy (difference between neutral response and maximum compound response) [2]: -59.028
- Max Resp (difference between neutral response and response at highest compound concentration) [2]: -100.132
- IC50 ([3]; Zika virus, Vero, 48 h): 8.74 µM
- CC50 at 48 h (in vitro [4]): > 50 µM
- CC50 (in vitro [5]): > 30 µM
- IC50 [6, 14]: > 48 µM

Compound: COc1ccc([C@H]2OC[C@H]3O[C@@H](O[C@H]4[C@@H]2NC[C@@H]4O)[C@H](O)[C@H]3O)cc1 [NCGC00380307-01]
- CC-v2 (curve class classification of the dose response curve) [1]: -1.2
- Efficacy [1]: -66.527
- AC50 ([1]; Zika virus, Vero): 2.27e-05 M
- IC50 ([1]; Zika virus, Vero, 48 h): 22.7 µM
- AC50 [1, 9]: 2.27e-05 M
- CC-v2 (curve class of the dose response curve) [2]: -1.2
- Efficacy (difference between neutral response and maximum compound response) [2]: -48.259
- Max Resp (difference between neutral response and response at highest compound concentration) [2]: -100.305
- AC50 ([2]; Zika virus, Vero): 1.31e-07 M
- AC50 [2, 9]: 1.31e-07 M
- IC50 ([3]; Zika virus, Vero, 48 h): 2.28 µM
- CC50 at 48 h (in vitro [4]; Vero cells): > 50 µM
- CC50 (in vitro [5]): > 30 µM
- IC50 ([6]; Zika virus, Vero, 48 h): 6.46 µM
